Activity calls are given as the source filed them.
Experiments:
[1] = target: Muscarinic acetylcholine receptor M3 (Homo sapiens) (UniProt P20309); test: Evaluated for the in vivo antagonistic activity against muscarinic M3 receptor; Active; type: functional, organism-based
[2] = target: T1, Muscarinic acetylcholine receptor M2 (Homo sapiens) (UniProt P08172); test: Evaluated for the in vitro antagonistic activity against muscarinic M2 receptor; Active; type: functional
T1 sequence (whole entry): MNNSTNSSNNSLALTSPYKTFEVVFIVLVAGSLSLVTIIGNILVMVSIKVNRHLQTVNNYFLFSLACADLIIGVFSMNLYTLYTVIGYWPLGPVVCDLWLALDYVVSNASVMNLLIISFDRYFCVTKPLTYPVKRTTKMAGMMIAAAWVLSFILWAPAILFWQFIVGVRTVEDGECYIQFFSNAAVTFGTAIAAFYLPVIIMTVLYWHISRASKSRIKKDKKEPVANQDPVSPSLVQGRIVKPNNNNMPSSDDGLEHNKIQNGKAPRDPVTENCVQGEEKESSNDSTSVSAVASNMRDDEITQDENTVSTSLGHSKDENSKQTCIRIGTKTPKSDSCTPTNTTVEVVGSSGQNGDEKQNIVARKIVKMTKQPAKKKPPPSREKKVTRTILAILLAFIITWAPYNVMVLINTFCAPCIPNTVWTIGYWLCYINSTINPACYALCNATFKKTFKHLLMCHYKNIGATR

[3] = species: Homo sapiens; test: Compound was tested for the inhibition of the colonic motility in humans; Active; type: functional, organism-based
[4] = species: Canis familiaris; test: Compound was tested for the inhibition of the gastrointestinal motility in dogs; Active; type: functional, organism-based; settings: Canis lupus familiaris
[5] = species: Homo sapiens; test: Compound was tested for the inhibition of the small bowel motility in humans; Active; type: functional, organism-based

Measured: Activity

Sequence of Muscarinic acetylcholine receptor M3 (Homo sapiens) (P20309 whole entry, looked up): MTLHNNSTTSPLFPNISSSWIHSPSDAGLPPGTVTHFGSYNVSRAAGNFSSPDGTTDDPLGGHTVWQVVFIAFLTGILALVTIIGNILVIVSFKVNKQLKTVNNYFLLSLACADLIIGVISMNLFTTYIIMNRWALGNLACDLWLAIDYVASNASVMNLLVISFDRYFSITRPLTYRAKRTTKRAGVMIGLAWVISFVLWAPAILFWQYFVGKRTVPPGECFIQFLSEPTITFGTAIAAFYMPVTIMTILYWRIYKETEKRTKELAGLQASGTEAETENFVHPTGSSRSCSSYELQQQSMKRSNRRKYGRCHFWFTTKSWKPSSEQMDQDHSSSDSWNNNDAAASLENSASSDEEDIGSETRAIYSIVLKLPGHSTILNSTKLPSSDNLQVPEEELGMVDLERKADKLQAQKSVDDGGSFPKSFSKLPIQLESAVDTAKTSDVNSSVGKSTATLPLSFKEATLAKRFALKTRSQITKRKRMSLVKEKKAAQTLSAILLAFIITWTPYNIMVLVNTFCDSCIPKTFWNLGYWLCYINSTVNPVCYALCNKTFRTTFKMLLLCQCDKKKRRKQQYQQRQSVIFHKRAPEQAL

c1ccc(C(O[C@@H]2CCCN(CCc3ccc4c(c3)OCO4)C2)c2ccccc2)cc1
active: all assays above

— ChEMBL document CHEMBL1129874, “A SHORT AND EFFICIENT SYNTHESIS OF ZAMIFENACIN A MUSCARINIC M3 RECEPTOR ANTAGONIST” (Bioorg Med Chem Lett, 1997)
